Source: patent EP4644383A1 (Jiangsu Yahong Meditech Co., Ltd., priority 2022, dated 2024)
pIC50: −log10 of the molar value.

target: T1, FGFR3 (Homo sapiens, UniProt P22607); assay: FGFR3 kinase activity inhibition assay (LanthaScreen TR-FRET); assay type: biochemical; details: not given
T1 construct: FGFR3's cytoplasmic domain [436-806 (terminal) amino acids]; purchased Carna 08-135
Description: PV3552) and 10 mM EDTA were added to quench the kinase reaction, and incubated at 22°C for 60 minutes. • ⑤ The reaction was measured using a PerkinElmer EnVision multimode plate reader through TR-FRET dual wavelength detection. • 1. The RFU values were copied from the Envision program. • 2. The ratio of RFU 520nm/RFU 495nm was calculated. • 3. The value of the ratio was converted to a percentage inhibition value. % Inhibition = (max-data)/(max-min) × 100 [formula] "Min" represents the ratio of the control without enzyme, "max" represents the ratio of the DMSO control, and "data" represents the ratio of the compounds in wells with different concentrations. […] "Top" refers to the maximum response, "Bottom" refers to the minimum response, and "HillSlope" refers to the slope of the curve. According to the same method as that in the FGFR1 kinase activity inhibition assay, the inhibitory activities against FGFR2, FGFR3 and FGFR4 were tested using FGFR2's cytoplasmic domain [399-821 (terminal) amino acids] (Carna: 08-134), FGFR3's cytoplasmic domain [436-806 (terminal) amino acids] (Carna: 08-135) and FGFR4's cytoplasmic domain [460-802 (terminal) amino acids] (Carna: 08-136), respectively. […]

T1 sequence (P22607 436-806): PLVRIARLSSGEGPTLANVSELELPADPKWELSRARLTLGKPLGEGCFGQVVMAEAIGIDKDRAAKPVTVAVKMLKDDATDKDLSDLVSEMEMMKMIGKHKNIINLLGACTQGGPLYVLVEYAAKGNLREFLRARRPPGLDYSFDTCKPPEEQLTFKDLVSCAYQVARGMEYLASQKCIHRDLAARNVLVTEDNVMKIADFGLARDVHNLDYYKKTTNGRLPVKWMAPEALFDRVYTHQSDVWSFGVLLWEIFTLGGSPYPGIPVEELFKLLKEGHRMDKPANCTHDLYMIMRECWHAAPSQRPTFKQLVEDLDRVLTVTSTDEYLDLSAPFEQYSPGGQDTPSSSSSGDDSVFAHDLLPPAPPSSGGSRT

SMILES | pIC50
C#Cc1ccc2ncccc2c1C(C)Oc1ccc2[nH]nc(-c3cnn(C)c3)c2c1 (stereo not drawn) [Example 166, 6-ethynyl-5-(1-((3-(1-methyl-lH-pyrazol-4-yl)-1H-indazol-5-yl)oxy)ethyl)quinoline] | 7.00 to 8.00
C[C@@H](Oc1ccc2[nH]nc(-c3cnn(CC(C)(C)O)c3)c2n1)c1c(Cl)cncc1Cl [Example 38, (R)-1-(4-(5-(1-(3,5-dichloropyridin-4-yl)ethoxy)-1H-pyrazolo[4,3-b]pyridin-3-yl)-1H-pyrazol-1-yl)-2-methylpropan-2-ol] | 7.00 to 8.00
C[C@@H](Oc1ccc2[nH]nc(-c3ccc(N4CCOCC4)nc3)c2n1)c1c(Cl)cncc1Cl [Example 33, (R)-4-(5-(5-(1-(3,5-dichloropyridin-4-yl)ethoxy)-1H-pyrazolo[4,3-b]pyridin-3-yl)pyridin-2-yl)morpholine] | 7.00 to 8.00

same assay, conditions: FGFR3 kinase, TR-FRET; read-out: IC50 (nM) FGFR3

IC50 [nM] | SMILES
> 100 | CC(Oc1ccc2[nH]nc(-c3cnn(C)c3)c2c1)C1CCOCC1 (stereo not drawn) [Example 86, 3-(1-methyl-1H-pyrazol-4-yl)-5-(1-(tetrahydro-2H-pyran-4-yl)ethoxy)-1H-indazole]
10 to 100 | Cc1ccc2ncccc2c1C(C)Oc1ccc2[nH]nc(-c3cn(C)nn3)c2c1 (stereo not drawn) [Example 165, 6-methyl-5-(1-((3-(1-methyl-1H-1,2,3-triazol-4-yl)-1H-indazol-5-yl)oxy)ethyl)qui noline]
> 100 | Cc1c[nH]c(-c2n[nH]c3ccc(C(=O)NCc4ncc[nH]4)cc23)n1 [Example 81]
> 100 | Cn1cc(-c2n[nH]c3ccc(OC4CCCc5cnccc54)cc23)cn1 (stereo not drawn) [Example 90, 5-((3-(1-methyl-1H-pyrazol-4-yl)-1H-indazol-5-yl)oxy)-5,6,7,8-tetrahydroisoquin oline]
10 to 100 | CC(Oc1ccc2[nH]nc(-c3cnn(C)c3)c2c1)c1nc(C#N)cc2nccnc12 (stereo not drawn) [Example 235, 5-(1-((3-(1-methyl-1H-pyrazol-4-yl)-1H-indazol-5-yl)oxy)ethyl)pyridino[3,4-b]pyr azine-7-carbonitrile]
1 to 10 | COc1cc(OC(C)c2nc(C)cc3nccnc23)cc2c(-c3cnn(C)c3)n[nH]c12 (stereo not drawn) [Example 231, 5-(1-((7-methoxy-3-(1-methyl-1H-pyrazol-4-yl)-1H-indazol-5-yl)oxy)ethyl)-7-methylpyrido[3,4-b]pyrazine]
> 100 | Cn1cc(-c2n[nH]c3ccc(C(=O)NCC(C)(C)O)cc23)cn1 [Example 67, N-(2-hydroxy-2-methylpropyl)-3-(1-methyl-1H-pyrazol-4-yl)-1H-indazole-5-carboxamide]
> 100 | CNCCNC(=O)c1cc2c(-c3cnn(C)c3)n[nH]c2cc1-c1cc(OC)cc(OC)c1 [Example 71, 6-(3,5-dimethoxyphenyl)-3-(1-methyl-1H-pyrazol-4-yl)-N-(2-(methylamino)ethyl) -1H-indazole-5-carboxamide]
10 to 100 | CC(Oc1ccc2[nH]nc(-c3cnn(C)c3)c2c1)c1csc2ncccc12 (stereo not drawn) [Example 125, 3-(1-((3-(1-methyl-1H-pyrazol-4-yl)-1H-indazol-5-yl)oxy)ethyl)thi eno[2,3-b]pyridine]
1 to 10 | C#Cc1cc(C(C)Oc2ccc3[nH]nc(-c4cnn(C)c4)c3c2)c2nccnc2c1 (stereo not drawn) [Example 146, 7-ethynyl-5-(1-((3-(1-methyl-1H-pyrazol-4-yl)-1H-indazol-5-yl)oxy)ethyl)quinoxa line]
10 to 100 | CC(Oc1ccc2[nH]nc(-c3cnn(C)c3)c2c1)c1cc(C(F)(F)F)cc2nccnc12 (stereo not drawn) [Example 137, 5-(1-((3-(1-methyl-1H-pyrazol-4-yl)-1H-indazol-5-yl)oxy)ethyl)-7-(trifluoromethyl)quinoxaline]
10 to 100 | CC(Oc1ccc2[nH]nc(-c3cnn(C)c3)c2c1)c1cccc2scnc12 (stereo not drawn) [Example 109]
> 100 | C[C@@H](Oc1ccc2[nH]nc(-c3cnn4c3CCCC4)c2n1)c1c(Cl)cncc1Cl [Example 44, (R)-5-(1-(3,5-dichloropyridin-4-yl)ethoxy)-3-(4,5,6,7-tetrahydropyrazolo[1,5-a]pyridin-3-yl)-1H-pyrazolo[4,3-b]pyridine]
> 100 | Cc1c[nH]c(-c2n[nH]c3c(C)cc(O[C@H](C)c4c(Cl)cncc4Cl)cc23)n1 [Example 9, (R)-5-(1-(3,5-dichloropyridin-4-yl)ethoxy)-7-methyl-3-(4-methyl-1H-imidazol-2-yl)-1H-indazole]
10 to 100 | CC(Oc1ccc2[nH]nc(-c3cnn(C)c3)c2c1)c1c(Cl)ccc2ncccc12 (stereo not drawn) [Example 167, 6-chloro-5-(1-((3-(1-methyl-1H-pyrazol-4-yl)-1H-indazol-5-yl)oxy)ethyl)qu inoline]
> 100 | CNCCNC(=O)c1cc2c(-c3cnn(C)c3)n[nH]c2cc1F [Example 73]
1 to 10 | Cc1ccc2ncccc2c1C(C)Oc1cc2c(-c3cnn(C)c3)n[nH]c2cn1 (stereo not drawn) [Example 131]

IC50 [nM] | SMILES
> 100 | Cc1c[nH]c(-c2n[nH]c3ccc(C(=O)NCC4CCNC4)cc23)n1 (stereo not drawn) [Example 79, 3-(4-methyl-1H-imidazol-2-yl)-N-(pyrrolidin-3-ylmethyl)-1H-indazole-5-carboxamide]
10 to 100 | CC(C)n1cc(-c2n[nH]c3ccc(O[C@H](C)c4c(Cl)cncc4Cl)nc23)cn1 [Example 47, (R)-5-(1-(3,5-dichloropyridin-4-yl)ethoxy)-3-(1-isopropyl-1H-pyrazol-4-yl)-1H-pyrazolo[4,3-b]pyridine]
> 100 | CNCCn1cc(-c2ccc3[nH]nc(-c4nc(C)c[nH]4)c3c2)nn1 [Example 75, N-methyl-2-(4-(3-(4-methyl-1H-imidazol-2-yl)-1H-indazol-5-yl)-1H-1,2,3-triazol-1-yl)ethan-1-amine]
> 100 | CNCCNC(=O)c1ccc2[nH]nc(-c3nc4cc(N5CCN(C)CC5)ccc4[nH]3)c2c1 [Example 84, N-(2-(methylamino)ethyl)-3-(5-(4-methylpiperazin-1-yl)-1H-benzo[d]imidazol-2-yl)-1H-indazole-5-carboxamide]
> 100 | Cc1ccc2ncccc2c1C(CO)Oc1ccc2[nH]nc(-c3cnn(C)c3)c2c1 (stereo not drawn) [Example 114, 2-((3-(1-methyl-1H-pyrazol-4-yl)-1H-indazol-5-yl)oxy)-2-(6-methylquinolin-5-yl)ethan-1-ol]
1 to 10 | CC(Oc1ccc2[nH]nc(-c3ccc(S(C)(=N)=O)nc3)c2c1)c1cccc2nccnc12 (stereo not drawn) [Example 152, imino(methyl)(5-(5-(1-(quinoxalin-5-yl)ethoxy)-1H-indazol-3-yl)pyridin-2-yl)-sulfanone]
> 100 | CNCCNC(=O)c1ccc2[nH]nc(-c3nc4c([nH]3)CN(C)C4)c2c1 [Example 83, 3-(5-methyl-1,4,5,6-tetrahydropyrrolo[3,4-d]imidazol-2-yl)-N-(2-(methylamino)ethyl)-1H-indazole-5-carboxamide]
> 100 | Cc1ccc(C(C)Oc2ccc3[nH]nc(-c4cnn(C)c4)c3c2)c2cccnc12 (stereo not drawn) [Example 123, 8-methyl-5-(1-((3-(1-methyl-1H-pyrazol-4-yl)-1H-indazol-5-yl)oxy)ethyl)qu inoline]
> 100 | CC(Oc1ccc2[nH]nc(-c3cnn(C)c3)c2c1)c1cccc2c1OCCO2 (stereo not drawn) [Example 97, 5-(1-(2,3-dihydrobenzo[b][1,4]dioxan-5-yl)ethoxy)-3-(1-methyl-1H-pyrazol-4-yl)-1H-indazole]
> 100 | CNCCNC(=O)c1cc(F)c2[nH]nc(-c3cnn(CCN4CCOCC4)c3)c2c1 [Example 70, 7-fluoro-N-(2-(methylamino)ethyl)-3-(1-(2-morpholinoethyl)-1H-pyrazol-4-yl)-1H-indazole-5-carboxamide]
< 1 | CC(Oc1ccc2[nH]nc(-c3ccc(N4CCS(=N)(=O)CC4)nc3)c2c1)c1cccc2nccnc12 (stereo not drawn) [Example 153]
10 to 100 | CC(Oc1ccc2[nH]nc(-c3cnn(C)c3)c2c1)c1cccc2occc12 (stereo not drawn) [Example 106, 5-(1-(benzofuran-4-yl)ethoxy)-3-(1-methyl-1H-pyrazol-4-yl)-1H-indazole]
> 100 | CNCCNC(=O)c1cc2c(-c3cnn(C)c3)n[nH]c2cc1OC [Example 72, 6-methoxy-3-(1-methyl-1H-pyrazol-4-yl)-N-(2-(methylamino)ethyl)-1H-indazole-5-carboxamide]
> 100 | Cc1ccc2ncccc2c1C(Oc1ccc2[nH]nc(-c3cnn(C)c3)c2c1)C(F)(F)F (stereo not drawn) [Example 121, 6-methyl-5-(2,2,2-trifluoro-1-((3-(1-methyl-1H-pyrazol-4-yl)-1H-indazol-5-yl)oxy)ethyl)quinoline]
10 to 100 | CC(Oc1ccc2[nH]nc(-c3cnn(C)c3)c2c1)c1cc(N(C)C)cc2ncccc12 (stereo not drawn) [Example 151]
1 to 10 | CC(Oc1ccc2[nH]nc(-c3cnn(C)c3)c2c1)c1c(F)ccc2ncccc12 (stereo not drawn) [Example 102, 6-fluoro-5-(1-((3-(1-methyl-1H-pyrazol-4-yl)-1H-indazol-5-yl)oxy)ethyl)qu inoline]
> 100 | Cc1cccc(C)c1NC(=O)c1ccc2[nH]nc(-c3cnn(C)c3)c2c1 [Example 77, N-(2,6-dimethylphenyl)-3-(1-methyl-1H-pyrazol-4-yl)-1H-indazole-5-carboxamide]

SMILES | IC50 [nM]
Cc1ccc2ncccc2c1C(=O)Oc1ccc2[nH]nc(-c3cnn(C)c3)c2c1 [Example 118] | 10 to 100

same assay, conditions: read-out: IC50 (nM) FGFR3; FGFR3 kinase, TR-FRET

SMILES | IC50 [nM]
CNCCN(C)C(=O)c1ccc2[nH]nc(-c3cnn(C)c3)c2c1 [Example 66, N-methyl-3-(1-methyl-1H-pyrazol-4-yl)-N-(2-(methylamino)ethyl) -1H-indazole-5-carboxamide] | > 100
